Data on eight molecules can be found in patent US20240217983A1, “GPR119 AGONISTS” (Kallyope, Inc., priority 2021, published 2024).

For orientation: Emax means the greatest response seen or fitted, relative to the assay's reference. As a reminder, the EC50 is the concentration at which the effect is half-maximal.

The test concerns the target T1, human GPR119 (hGPR119) (Homo sapiens, UniProt Q8TDV5).
T1 construct: expressed in transfected cells
T1 sequence (Q8TDV5 1-335): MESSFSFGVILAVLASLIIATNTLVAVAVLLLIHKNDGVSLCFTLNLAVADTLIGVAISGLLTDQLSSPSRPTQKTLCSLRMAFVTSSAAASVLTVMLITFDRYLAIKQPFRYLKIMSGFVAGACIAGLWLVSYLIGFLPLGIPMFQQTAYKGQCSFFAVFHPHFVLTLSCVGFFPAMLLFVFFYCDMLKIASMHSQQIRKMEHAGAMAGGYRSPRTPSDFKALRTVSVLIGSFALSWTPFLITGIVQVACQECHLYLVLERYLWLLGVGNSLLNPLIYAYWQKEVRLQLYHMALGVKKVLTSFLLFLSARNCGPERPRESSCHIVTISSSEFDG
Briefly: cAMP accumulation assay (Cisbio cAMP Gs dynamic HTRF kit) in CHO-K1 cells stably expressing human GPR119. It is filed as cell-based. The settings on record: 4-parameter fit; for Emax: 1 h, % activity normalized to Max and Min controls; for EC50: 60 minutes at 37° C. The gist of the method:
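CHO-K1 cells stably expressing hGPR119, used as assay-ready frozen stocks at ~10,000 cells/well, exposed to compound dose-response in stimulation buffer with Tween 80 for 60 min at 37° C. cAMP read by HTRF (665/620 nm ratio), normalised to Max/Min controls; EC50 and Max activity from 4-parameter fit.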
(cAMP levels reflect the balance of adenylyl cyclase and phosphodiesterase activity.)

The structures appear in SMILES notation.

Take `O=C(Cc1ccc(OCCCC2CCN(c3ncc(Cl)cn3)CC2)cc1F)N1CCC2(CC1)CCN2C[C@H](O)[C@H](O)[C@H](O)CO` [Example 67, 2-(4-(3-(1-(5-chloropyrimidin-2-yl)piperidin-4-yl)propoxy)-2-fluorophenyl)-1-(1-((2S,3S,4R)-2,3,4,5-tetrahydroxypentyl)-1,7-diazaspiro[3.5]nonan-7-yl)ethan-1-one]: the Emax fell in the range of 100 to 130% and the EC50 is at most 100 nM.

`O=C(Cc1ccc(OCCCC2CCN(c3ncc(Cl)cn3)CC2)cc1F)N1CCC2(CC1)CCN2C[C@H](O)[C@@H](O)[C@H](O)[C@H](O)CO` [Example 68, 2-(4-(3-(1-(5-chloropyrimidin-2-yl)piperidin-4-yl)propoxy)-2-fluorophenyl)-1-(1-((2S,3R,4R,5R)-2,3,4,5,6-pentahydroxyhexyl)-1,7-diazaspiro[3.5]nonan-7-yl)ethan-1-one] returned an Emax of 100 to 130% and an EC50 of at most 100 nM.

`O=C(Cc1ccc(OCCCC2CCN(c3ncc(Cl)cn3)CC2)cc1F)N1CCC2(CC1)CN(C[C@H](O)[C@H](O)[C@H](O)CO)C2` [Example 69, 2-(4-(3-(1-(5-chloropyrimidin-2-yl)piperidin-4-yl)propoxy)-2-fluorophenyl)-1-(2-((2S,3S,4R)-2,3,4,5-tetrahydroxypentyl)-2,7-diazaspiro[3.5]nonan-7-yl)ethan-1-one] came in with an Emax of 100 to 130% and a 50% effective concentration (EC50) of 100 to 1000 nM.

As to `O=C(Cc1ccc(OCCCC2CCN(c3ncc(Cl)cn3)CC2)cc1F)N1CCC2(CC1)CN(C[C@H](O)[C@@H](O)[C@H](O)[C@H](O)CO)C2` [Example 70, 2-(4-(3-(1-(5-chloropyrimidin-2-yl)piperidin-4-yl)propoxy)-2-fluorophenyl)-1-(2-((2S,3R,4R,5R)-2,3,4,5,6-pentahydroxyhexyl)-2,7-diazaspiro[3.5]nonan-7-yl)ethan-1-one], the Emax is 100 to 130% and the 50% effective concentration (EC50) is 100 to 1000 nM.

Regarding `O=C(Cc1ccc(OCCCC2CCN(c3ncc(Cl)cn3)CC2)cc1F)N1CCN(C[C@H](O)[C@H](O)[C@H](O)CO)CC1` [Example 71, 2-(4-(3-(1-(5-chloropyrimidin-2-yl)piperidin-4-yl)propoxy)-2-fluorophenyl)-1-(4-((2S,3S,4R)-2,3,4,5-tetrahydroxypentyl)piperazin-1-yl)ethan-1-one], the Emax was 100 to 130% and the EC50 was at most 100 nM.

`O=C(Cc1ccc(OCCCC2CCN(c3ncc(Cl)cn3)CC2)cc1F)N1CCC2(CN(C[C@H](O)[C@H](O)[C@H](O)CO)CCO2)C1` (stereo partly drawn) [Example 72, 2-(4-(3-(1-(5-chloropyrimidin-2-yl)piperidin-4-yl)propoxy)-2-fluorophenyl)-1-(9-((2S,3S,4R)-2,3,4,5-tetrahydroxypentyl)-6-oxa-2,9-diazaspiro[4.5]decan-2-yl)ethan-1-one] showed an Emax of 100 to 130% and an EC50 of at most 100 nM.

In the case of `O=C(Cc1ccc(OCCCC2CCN(c3ncc(Cl)cn3)CC2)cc1F)N1CCC2(CN(C[C@H](O)[C@@H](O)[C@H](O)[C@H](O)CO)CCO2)C1` (stereo partly drawn) [Example 73, 2-(4-(3-(1-(5-chloropyrimidin-2-yl)piperidin-4-yl)propoxy)-2-fluorophenyl)-1-(9-((2S,3R,4R,5R)-2,3,4,5,6-pentahydroxyhexyl)-6-oxa-2,9-diazaspiro[4.5]decan-2-yl)ethan-1-one], the Emax lay within 100 to 130% and the EC50 was at most 100 nM.

In turn, `O=C(Cc1ccc(OCCCC2CCN(c3ncc(Cl)cn3)CC2)cc1F)N1CCC2(CCCN2C[C@H](O)[C@H](O)[C@H](O)CO)C1` (stereo partly drawn) [Example 74, 2-(4-(3-(1-(5-chloropyrimidin-2-yl)piperidin-4-yl)propoxy)-2-fluorophenyl)-1-(1-((2S,3S,4R)-2,3,4,5-tetrahydroxypentyl)-1,7-diazaspiro[4.4]nonan-7-yl)ethan-1-one] yielded a maximal effect (Emax) of at least 130% and a concentration giving a half-maximal response (EC50) of at most 100 nM.
